Several values for one entry are separate records, joined by “and”; a condition that tells them apart may be missing. Equal values may be shown once. Where a SMILES comes first, the peptide text is derived from it. The star is where a group is joined. Cbz = O=C(OCc1ccccc1)*
What was measured:
CPC-N = test: cells; type: functional, cell-based, Homo sapiens;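 note: growth inhibition of CPC-N cells, with a cell viability assay as the readout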
Description: SANGER: Inhibition of human CPC-N cell growth in a cell viability assay.

EW-24 = test: cells; type: functional, cell-based, Homo sapiens;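 note: human EW-24 cancer cell line, growth inhibition read out via a cell viability assay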
Description: SANGER: Inhibition of human EW-24 cell growth in a cell viability assay.

HuTu80 = test: cells; type: functional, cell-based, Homo sapiens, HUTU-80;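 note: growth inhibition of HuTu80 human cells, determined with a cell viability readout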
Description: SANGER: Inhibition of human HUTU-80 cell growth in a cell viability assay.

IM-9 = test: SANGER: Inhibition of human IM-9 cell growth in a cell viability assay.; type: functional, cell-based
JIYOYE = test: cells; type: functional, cell-based, Homo sapiens
Description: SANGER: Inhibition of human JiyoyeP-2003 cell growth in a cell viability assay.

MC-CAR = test: cells; type: functional, cell-based, Homo sapiens;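 note: growth inhibition of the human MC-CAR cell line, read out by a cell viability assay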
Description: SANGER: Inhibition of human MC-CAR cell growth in a cell viability assay.

NALM-6 = test: cells; type: functional, cell-based, Homo sapiens;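 note: growth inhibition of NALM-6 cells, read out with a cell viability assay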
Description: SANGER: Inhibition of human NALM-6 cell growth in a cell viability assay.

NCCIT = test: SANGER: Inhibition of human NCCIT cell growth in a cell viability assay.; type: functional, cell-based
NCI-H2081 = test: cells; type: functional, cell-based, Homo sapiens;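 note: growth inhibition of human NCI-H2081 cells, read out with a cell viability assay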
Description: SANGER: Inhibition of human NCI-H2081 cell growth in a cell viability assay.

NCI-H2196 = test: cells; type: functional, cell-based, Homo sapiens;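 note: cell viability assay used as the readout of growth inhibition in NCI-H2196 cells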
Description: SANGER: Inhibition of human NCI-H2196 cell growth in a cell viability assay.

NCI-H748 = test: cells; type: functional, cell-based, Homo sapiens;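 note: growth inhibition of NCI-H748 cells, measured by a cell viability assay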
Description: SANGER: Inhibition of human NCI-H748 cell growth in a cell viability assay.

P31-FUJ = test: cells; type: functional, cell-based, Homo sapiens;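 note: growth inhibition of P31-FUJ cells, read out with a viability assay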
Description: SANGER: Inhibition of human P31-FUJ cell growth in a cell viability assay.

RPMI-6666 = test: cells; type: functional, cell-based, Homo sapiens
Description: SANGER: Inhibition of human RPMI-6666 cell growth in a cell viability assay.

SUP-T1 = test: cells; type: functional, cell-based, Homo sapiens;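 note: growth inhibition of human SUP-T1 cells, read out as cell viability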
Description: SANGER: Inhibition of human SUP-T1 cell growth in a cell viability assay.

TALL-1 = test: cells; type: functional, cell-based, Homo sapiens;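 note: growth inhibition of cultured human TALL-1 cells, read out by a cell viability assay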
Description: SANGER: Inhibition of human TALL-1 cell growth in a cell viability assay.

TUR = test: cells; type: functional, cell-based, Homo sapiens;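 note: growth inhibition of human TUR cells, read out with a cell viability assay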
Description: SANGER: Inhibition of human TUR cell growth in a cell viability assay.

COR-L105 = test: cells; type: functional, cell-based; settings: Homo sapiens
Description: SANGER: Inhibition of human COR-L105 cell growth in a cell viability assay.

D-392MG = test: cells; type: functional, cell-based; settings: Homo sapiens
DMS-273 = test: cells; type: functional, cell-based; settings: Homo sapiens
Description: SANGER: Inhibition of human DMS-273 cell growth in a cell viability assay.

DoTc2-4510 = test: cells; type: functional, cell-based; settings: Homo sapiens
EFM-19 = test: cells; type: functional, cell-based; settings: Homo sapiens;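 note: growth inhibition of human EFM-19 cells, measured in a cell viability assay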
Description: SANGER: Inhibition of human EFM-19 cell growth in a cell viability assay.

EFO-21 = test: cells; type: functional, cell-based; settings: Homo sapiens;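 note: growth inhibition of EFO-21 cells measured with a viability assay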
Description: SANGER: Inhibition of human EFO-21 cell growth in a cell viability assay.

EFO-27 = test: cells; type: functional, cell-based; settings: Homo sapiens;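 note: growth inhibition of EFO-27 cells, read out with a cell viability assay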
Description: SANGER: Inhibition of human EFO-27 cell growth in a cell viability assay.

G-402 = test: cells; type: functional, cell-based; settings: Homo sapiens
Description: SANGER: Inhibition of human G-402 cell growth in a cell viability assay.

GCT = test: cells; type: functional, cell-based; settings: Homo sapiens;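 note: GCT cell line proliferation inhibition, read out with a cell viability assay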
Description: SANGER: Inhibition of human GCT cell growth in a cell viability assay.

HCT-116 = test: cells; type: functional, cell-based; settings: Homo sapiens
Description: SANGER: Inhibition of human HCT-116 cell growth in a cell viability assay.

HMV-2 cell line = test: cells; type: functional, cell-based; settings: Homo sapiens;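 note: growth inhibition of HMV-II cells, read out with a cell viability assay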
Description: SANGER: Inhibition of human HMV-II cell growth in a cell viability assay.

HT-29 = test: cells; type: functional, cell-based; settings: Homo sapiens;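 note: growth inhibition of human HT-29 cells, read out by a cell viability assay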
Description: SANGER: Inhibition of human HT-29 cell growth in a cell viability assay.

HuCCT-1 = test: cells; type: functional, cell-based, HuCCT1; settings: Homo sapiens;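 note: growth inhibition of HuCCT-1 cells, read out by a cell viability assay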
Description: SANGER: Inhibition of human HuCCT1 cell growth in a cell viability assay.

HuO-3N1 = test: cells; type: functional, cell-based; settings: Homo sapiens;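 note: cell viability readout used to measure how strongly compounds suppress proliferation of human HuO-3N1 cells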
Description: SANGER: Inhibition of human HuO-3N1 cell growth in a cell viability assay.

KYSE-410 = test: cells; type: functional, cell-based; settings: Homo sapiens;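 note: growth inhibition of KYSE-410 cells, measured through a cell viability readout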
Description: SANGER: Inhibition of human KYSE-410 cell growth in a cell viability assay.

KYSE-70 cell line = test: cells; type: functional, cell-based; settings: Homo sapiens;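 note: cell viability assay read-out, with IC50 expressing suppression of KYSE-70 cell growth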
Description: SANGER: Inhibition of human KYSE-70 cell growth in a cell viability assay.

LCLC-97TM1 = test: cells; type: functional, cell-based; settings: Homo sapiens;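 note: cell viability assay measuring growth inhibition of human LCLC-97TM1 cells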
Description: SANGER: Inhibition of human LCLC-97TM1 cell growth in a cell viability assay.

MDA-MB-231 = test: cells; type: functional, cell-based; settings: Homo sapiens
Description: SANGER: Inhibition of human MDA-MB-231 cell growth in a cell viability assay.

MFE-280 = test: cells; type: functional, cell-based; settings: Homo sapiens;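 note: growth inhibition of MFE-280 cells, determined with a cell viability readout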
Description: SANGER: Inhibition of human MFE-280 cell growth in a cell viability assay.

NCI-H1755 = test: cells; type: functional, cell-based; settings: Homo sapiens;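 note: cell viability readout used to measure growth inhibition of NCI-H1755 cells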
Description: SANGER: Inhibition of human NCI-H1755 cell growth in a cell viability assay.

NCI-H2030 = test: cells; type: functional, cell-based; settings: Homo sapiens;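 note: growth inhibition of human NCI-H2030 cells, read out by a cell viability assay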
Description: SANGER: Inhibition of human NCI-H2030 cell growth in a cell viability assay.

NCI-H2087 = test: cells; type: functional, cell-based; settings: Homo sapiens;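 note: growth inhibition determined with a cell viability readout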
Description: SANGER: Inhibition of human NCI-H2087 cell growth in a cell viability assay.

NCI-H2342 = test: cells; type: functional, cell-based; settings: Homo sapiens;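 note: growth inhibition of the cancer cell line, determined with a cell viability assay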
Description: SANGER: Inhibition of human NCI-H2342 cell growth in a cell viability assay.

NCI-H2405 = test: cells; type: functional, cell-based; settings: Homo sapiens;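 note: growth inhibition of the human cell line, read out with a cell viability assay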
Description: SANGER: Inhibition of human NCI-H2405 cell growth in a cell viability assay.

NCI-H292 = test: cells; type: functional, cell-based; settings: Homo sapiens;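 note: growth inhibition of NCI-H292 cells, read out with a cell viability assay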
Description: SANGER: Inhibition of human NCI-H292 cell growth in a cell viability assay.

NUGC-3 = test: cells; type: functional, cell-based; settings: Homo sapiens;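 note: growth inhibition of human NUGC-3 cells, read out with a cell viability assay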
Description: SANGER: Inhibition of human NUGC-3 cell growth in a cell viability assay.

RD = test: cells; type: functional, cell-based; settings: Homo sapiens
Description: SANGER: Inhibition of human RD cell growth in a cell viability assay.

S-117 = test: cells; type: functional, cell-based; settings: Homo sapiens
Description: SANGER: Inhibition of human S-117 cell growth in a cell viability assay.

SCC-25 = test: cells; type: functional, cell-based; settings: Homo sapiens;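 note: growth inhibition of SCC-25 cells, measured with a cell viability assay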
Description: SANGER: Inhibition of human SCC-25 cell growth in a cell viability assay.

SNU-387 = test: cells; type: functional, cell-based; settings: Homo sapiens
Description: SANGER: Inhibition of human SNU-387 cell growth in a cell viability assay.

SW1990 = test: cells; type: functional, cell-based; settings: Homo sapiens
Description: SANGER: Inhibition of human SW1990 cell growth in a cell viability assay.

SW48 = test: cells; type: functional, cell-based; settings: Homo sapiens;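 note: growth inhibition of SW48 cells, read out with a cell viability assay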
Description: SANGER: Inhibition of human SW48 cell growth in a cell viability assay.

SW780 = test: cells; type: functional, cell-based; settings: Homo sapiens;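 note: growth inhibition of the cells, read out with a cell viability assay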
Description: SANGER: Inhibition of human SW780 cell growth in a cell viability assay.

T98G = test: cells; type: functional, cell-based; settings: Homo sapiens;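 note: growth inhibition of T98G cells, read out by a cell viability assay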
Description: SANGER: Inhibition of human T98G cell growth in a cell viability assay.

8505C = test: cells; type: functional, cell-based; settings: Homo sapiens
Description: SANGER: Inhibition of human 8505C cell growth in a cell viability assay.

A204 = test: cells; type: functional, cell-based; settings: Homo sapiens;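 note: growth inhibition of human A204 cells, read out with a cell viability assay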
Description: SANGER: Inhibition of human A204 cell growth in a cell viability assay.

A-427 = test: cells; type: functional, cell-based; settings: Homo sapiens;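 note: growth inhibition of human A-427 cells, read out by a cell viability assay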
Description: SANGER: Inhibition of human A427 cell growth in a cell viability assay.

BHT-101 = test: cells; type: functional, cell-based; settings: Homo sapiens
Description: SANGER: Inhibition of human BHT-101 cell growth in a cell viability assay.

CAKI-1 = test: cells; type: functional, cell-based; settings: Homo sapiens;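 note: growth inhibition of CAKI-1 cells, measured by a cell viability assay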
Description: SANGER: Inhibition of human CAKI-1 cell growth in a cell viability assay.

UMC-11 = test: cells; type: functional, cell-based; settings: Homo sapiens;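 note: growth inhibition of UMC-11 cells, read out with a cell viability assay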
Description: SANGER: Inhibition of human UMC-11 cell growth in a cell viability assay.

VM-CUB-1 = test: cells; type: functional, cell-based; settings: Homo sapiens;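 note: cell viability assay measuring growth inhibition of the human VM-CUB-1 cell line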
Description: SANGER: Inhibition of human VM-CUB-1 cell growth in a cell viability assay.

CHP-212 = test: cells; type: functional, cell-based; settings: Homo sapiens
Description: SANGER: Inhibition of human CHP-212 cell growth in a cell viability assay.

[1] = Homo sapiens, NCI-H2196, read-out: IC50

C[C@@H](Oc1cc(-c2cnn(C3CCNCC3)c2)cnc1N)c1c(Cl)ccc(F)c1Cl [CRIZOTINIB]
IC50 (CPC-N; Homo sapiens, CPC-N): > 2 µM | IC50 (EW-24; Homo sapiens, EW-24): > 2 µM | IC50 (HuTu80; Homo sapiens, HuTu80): > 2 µM | IC50 (IM-9; Homo sapiens, IM-9): > 2 µM | IC50 (JIYOYE; Homo sapiens, JIYOYE): > 2 µM | IC50 (MC-CAR; Homo sapiens, MC-CAR): > 2 µM | IC50 (NALM-6; Homo sapiens, NALM-6): > 2 µM | IC50 (NCCIT; Homo sapiens, NCCIT): > 2 µM | IC50 (NCI-H2081; Homo sapiens, NCI-H2081): > 2 µM | IC50 (NCI-H2196; [1]): > 2 µM | IC50 (NCI-H748; Homo sapiens, NCI-H748): > 2 µM | IC50 (P31-FUJ; Homo sapiens, P31-FUJ): > 2 µM | IC50 (RPMI-6666; Homo sapiens, RPMI-6666): > 2 µM | IC50 (SUP-T1; Homo sapiens, SUP-T1): > 2 µM | IC50 (TALL-1; Homo sapiens, TALL-1): > 2 µM | IC50 (TUR; Homo sapiens, TUR): > 2 µM

C=CC(=O)N1CCCC(Nc2nc(Nc3ccc(N(C)C(=O)CC)cc3)nc3[nH]cnc23)C1 (stereo not given)
IC50 (CPC-N; Homo sapiens, CPC-N): > 10.2 µM | IC50 (EW-24; Homo sapiens, EW-24): 4.59 µM | IC50 (HuTu80; Homo sapiens, HuTu80): > 10.2 µM | IC50 (IM-9; Homo sapiens, IM-9): > 10.2 µM | IC50 (JIYOYE; Homo sapiens, JIYOYE): > 10.2 µM | IC50 (MC-CAR; Homo sapiens, MC-CAR): > 10.2 µM | IC50 (NALM-6; Homo sapiens, NALM-6): > 10.2 µM | IC50 (NCCIT; Homo sapiens, NCCIT): > 10.2 µM | IC50 (NCI-H2081; Homo sapiens, NCI-H2081): > 10.2 µM | IC50 (NCI-H2196; [1]): > 10.2 µM | IC50 (NCI-H748; Homo sapiens, NCI-H748): > 10.2 µM | IC50 (P31-FUJ; Homo sapiens, P31-FUJ): > 10.2 µM | IC50 (RPMI-6666; Homo sapiens, RPMI-6666): > 10.2 µM | IC50 (SUP-T1; Homo sapiens, SUP-T1): > 10.2 µM | IC50 (TALL-1; Homo sapiens, TALL-1): > 10.2 µM | IC50 (TUR; Homo sapiens, TUR): > 10.2 µM

Cc1ccc(NC(=O)c2ccc(CN3CCN(C)CC3)cc2)cc1Nc1nccc(-c2cccnc2)n1 [IMATINIB]
IC50 (CPC-N; Homo sapiens, CPC-N): > 2 µM | IC50 (EW-24; Homo sapiens, EW-24): > 2 µM | IC50 (HuTu80; Homo sapiens, HuTu80): > 2 µM | IC50 (IM-9; Homo sapiens, IM-9): > 2 µM | IC50 (JIYOYE; Homo sapiens, JIYOYE): > 2 µM | IC50 (MC-CAR; Homo sapiens, MC-CAR): > 2 µM | IC50 (NALM-6; Homo sapiens, NALM-6): > 2 µM | IC50 (NCCIT; Homo sapiens, NCCIT): > 2 µM | IC50 (NCI-H2081; Homo sapiens, NCI-H2081): > 2 µM | IC50 (NCI-H2196; Homo sapiens, NCI-H2196): > 2 µM | IC50 (NCI-H748; Homo sapiens, NCI-H748): > 2 µM | IC50 (P31-FUJ; Homo sapiens, P31-FUJ): > 2 µM | IC50 (RPMI-6666; Homo sapiens, RPMI-6666): > 2 µM | IC50 (SUP-T1; Homo sapiens, SUP-T1): > 2 µM | IC50 (TALL-1; Homo sapiens, TALL-1): > 2 µM | IC50 (TUR; Homo sapiens, TUR): > 2 µM

COc1ccc(N(C(=O)Oc2c(C)cccc2C)c2ccnc(Nc3ccc(N4CCN(C)CC4)cc3)n2)c(OC)c1
IC50 (CPC-N; Homo sapiens, CPC-N): > 5.12 µM | IC50 (EW-24; Homo sapiens, EW-24): > 5.12 µM | IC50 (HuTu80; Homo sapiens, HuTu80): 0.175 µM | IC50 (IM-9; Homo sapiens, IM-9): > 5.12 µM | IC50 (JIYOYE; Homo sapiens, JIYOYE): > 5.12 µM | IC50 (MC-CAR; Homo sapiens, MC-CAR): > 5.12 µM | IC50 (NALM-6; Homo sapiens, NALM-6): > 5.12 µM | IC50 (NCCIT; Homo sapiens, NCCIT): > 5.12 µM | IC50 (NCI-H2081; Homo sapiens, NCI-H2081): > 5.12 µM | IC50 (NCI-H2196; [1]): > 5.12 µM | IC50 (NCI-H748; Homo sapiens, NCI-H748): > 5.12 µM | IC50 (P31-FUJ; Homo sapiens, P31-FUJ): > 5.12 µM | IC50 (RPMI-6666; Homo sapiens, RPMI-6666): > 5.12 µM | IC50 (SUP-T1; Homo sapiens, SUP-T1): > 5.12 µM | IC50 (TALL-1; Homo sapiens, TALL-1): > 5.12 µM | IC50 (TUR; Homo sapiens, TUR): > 5.12 µM

Cc1ccc(-n2nc(C(C)(C)C)cc2NC(=O)Nc2ccc(OCCN3CCOCC3)c3ccccc23)cc1 [DORAMAPIMOD]
IC50 (COR-L105): > 10 µM | IC50 (D-392MG): > 10 µM | IC50 (DMS-273): > 10 µM | IC50 (DoTc2-4510): > 10 µM | IC50 (EFM-19): > 10 µM | IC50 (EFO-21): > 10 µM | IC50 (EFO-27): > 10 µM | IC50 (G-402): > 10 µM | IC50 (GCT): > 10 µM | IC50 (HCT-116): > 10 µM | IC50 (HMV-2 cell line): > 10 µM | IC50 (HT-29): > 10 µM | IC50 (HuTu80; Homo sapiens, HuTu80): > 10 µM | IC50 (HuCCT-1): > 10 µM | IC50 (HuO-3N1): > 10 µM | IC50 (KYSE-410): > 10 µM | IC50 (KYSE-70 cell line): > 10 µM | IC50 (LCLC-97TM1): > 10 µM | IC50 (MDA-MB-231): > 10 µM | IC50 (MFE-280): > 10 µM | IC50 (NCI-H1755): > 10 µM | IC50 (NCI-H2030): > 10 µM | IC50 (NCI-H2087): > 10 µM | IC50 (NCI-H2342): > 10 µM | IC50 (NCI-H2405): > 10 µM | IC50 (NCI-H292): > 10 µM | IC50 (NUGC-3): > 10 µM | IC50 (RD): > 10 µM | IC50 (S-117): > 10 µM | IC50 (SCC-25): > 10 µM | IC50 (SNU-387): > 10 µM | IC50 (SW1990): > 10 µM | IC50 (SW48): > 10 µM | IC50 (SW780): > 10 µM | IC50 (T98G): > 10 µM | IC50 (8505C): > 10 µM | IC50 (A204): > 10 µM | IC50 (A-427): > 10 µM | IC50 (BHT-101): > 10 µM | IC50 (CAKI-1): > 10 µM | IC50 (UMC-11): > 10 µM | IC50 (VM-CUB-1): > 10 µM | IC50 (CHP-212): > 10 µM

CC(C)C[C@@H](C=O)NC(=O)[C@H](CC(C)C)NC(=O)[C@H](CC(C)C)NC(=O)OCc1ccccc1 [MG-132] (Cbz-Leu-Leu-Leu-aldehyde)
IC50 (CPC-N; cpc-n): > 1 µM | IC50 (D-392MG): 0.191 µM | IC50 (EW-24; Homo sapiens, EW-24): > 1 µM | IC50 (EW-24; ew-24): > 1 µM | IC50 (HuTu80; Homo sapiens, HuTu80): > 1 µM | IC50 (HuTu80; hutu-80): > 1 µM | IC50 (IM-9; im-9): > 1 µM | IC50 (JIYOYE; jiyoye): > 1 µM | IC50 (MC-CAR; mc-car): > 1 µM | IC50 (NALM-6; Homo sapiens, NALM-6): > 1 µM | IC50 (NALM-6; nalm-6): > 1 µM | IC50 (NCCIT; nccit): 0.318 µM and > 1 µM | IC50 (NCI-H2081; nci-h2081): > 1 µM | IC50 (NCI-H2196; [1]): > 1 µM | IC50 (NCI-H2196; nci-h2196, read-out: IC50): > 1 µM | IC50 (NCI-H748; Homo sapiens, NCI-H748): > 1 µM | IC50 (NCI-H748; nci-h748): > 1 µM | IC50 (P31-FUJ; p31-fuj): > 1 µM | IC50 (RPMI-6666; rpmi-6666): > 1 µM | IC50 (SUP-T1; Homo sapiens, SUP-T1): > 1 µM | IC50 (SUP-T1; sup-t1): > 1 µM | IC50 (TALL-1; tall-1): > 1 µM | IC50 (TUR; tur): > 1 µM

Source: ChEMBL document CHEMBL1201861, “Genomics of Drug Sensitity in Cancer screening data, Wellcome Trust Sanger Institute”
